US20230257354A1, “NOVEL HETEROCYCLIC COMPOUNDS” (Hoffmann-La Roche Inc., priority 2020, published 2023)
Structures can show the parent of a compound that is named as a salt.

Experiments:
[1] = system: Acinetobacter baumannii ATCC17961; experiment: Antimicrobial susceptibility testing, 90% growth inhibitory concentration (IC90) determination, ATCC17961; type: cell-based; conditions: Iso-Sensitest broth, OD 600 nm over 16 h, 35±2° C., read-out: ATCC 17961 IC90
Procedure: Antimicrobial Susceptibility Testing: 90% Growth Inhibitory Concentration (IC90) Determination The in vitro antimicrobial activity of the compounds was determined according to the following procedure: The assay used a 10-points Iso-Sensitest broth medium to measure quantitatively the in vitro activity of the compounds against Acinetobacter baumannii ATCC17978 or ATCC17961. Stock compounds in DMSO were serially twofold diluted (e.g. range from 50 to 0.097 μM final concentration) in 384 wells microtiter plates and inoculated with 49 μl the bacterial suspension in Iso-Sensitest medium to have a final cell concentration of ˜5×10^(5) CFU/ml in a final volume/well of 50 ul/well. Microtiter plates were incubated at 35±2° C. Bacterial cell growth was determined with the measurement of optical density at X=600 nm each 20 minutes over a time course of 16 h. Growth inhibition was calculated during the logarithmic growth of the bacterial cells with determination of the concentration inhibiting 50% (IC50) and 90% (IC90) of the growth. Table 2 provides the 90% growth inhibitory concentrations (IC90) in micromoles per liter of the compounds of present invention obtained against the strain Acinetobacter baumannii ATCC17961.

[2] = system: Acinetobacter baumannii ATCC17978; experiment: Antimicrobial susceptibility testing, 90% growth inhibitory concentration (IC90) determination, ATCC17978; type: cell-based; conditions: Iso-Sensitest broth, OD 600 nm over 16 h, 35±2° C., read-out: ATCC 17978 IC90
How it was run: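 Serial twofold dilutions (e.g. 50 to 0.097 μM final) in Iso-Sensitest broth, inoculum ~5×10^(5) CFU/ml, incubated 35±2 °C for 16 h. OD600 read every 20 min; growth inhibition calculated during logarithmic growth to derive the concentration inhibiting 90% of growth, in μM.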

SMILES	IC90 [1]	IC90 [2]
COc1ccc(-c2cnc(C(=O)Nc3ccc(C(=O)N[C@H]4[C@@H]5CN(C(=O)N[C@@H]6CNC[C@H]6O)C[C@@H]54)c(Cl)c3)n2C)c(F)c1F [Example B44, (exo)-6-[[2-chloro-4-[[5-(2,3-difluoro-4-methoxy-phenyl)-1-methyl-imidazole-2-carbonyl]amino]benzoyl]amino]-N-[(trans)-4-hydroxypyrrolidin-3-yl]-3-azabicyclo[3.1.0]hexane-3-carboxamide; 1:1 hydrogen chloride]	155 nM	–
Cc1cc(NC(=O)c2ncc(-c3ccc(OCC#N)c(F)c3F)n2C)ccc1C(=O)NCCNC(=O)C1(O)CCNCC1 [Example B14, N-[2-[[4-[[5-[4-(cyanomethoxy)-2,3-difluoro-phenyl]-1-methyl-imidazole-2-carbonyl]amino]-2-methyl-benzoyl]amino]ethyl]-4-hydroxy-piperidine-4-carboxamide;formic acid]	–	990 nM
COc1ccc(-c2cnc(C(=O)Nc3ccc(C(=O)NCCCCCCN)c(Cl)c3)n2C)c(F)c1F [Example A6, N-[4-(6-aminohexylcarbamoyl)-3-chloro-phenyl]-5-(2,3-difluoro-4-methoxy-phenyl)-1-methyl-imidazole-2-carboxamide]	–	150 nM
CCc1cc(NC(=O)c2ncc(-c3ccc(OC)c(F)c3F)n2C)ccc1C(=O)NC1CN(C(=O)CN)C1 [Example B23, N-[4-[[1-(2-aminoacetyl)azetidin-3-yl]carbamoyl]-3-ethyl-phenyl]-5-(2,3-difluoro-4-methoxy-phenyl)-1-methyl-imidazole-2-carboxamide;formic acid]	–	300 nM
COc1ccc(-c2cnc(C(=O)Nc3ccc(C(=O)NCCN4CCNCC4)c(Cl)c3)n2C)c(F)c1F [Example A2, N-[3-chloro-4-(2-piperazin-1-ylethylcarbamoyl)phenyl]-5-(2,3-difluoro-4-methoxy-phenyl)-1-methyl-imidazole-2-carboxamide]	–	610 nM
CCc1cc(NC(=O)c2ncc(-c3ccc(OC(F)F)cc3)n2C)ccc1C(=O)NCCOCCN [Example A14, N-[4-[2-(2-aminoethoxy)ethylcarbamoyl]-3-ethyl-phenyl]-5-[4-(difluoromethoxy)phenyl]-1-methyl-imidazole-2-carboxamide;hydrochloride]	–	3000 nM
Cn1c(-c2ccc(OCC#N)c(F)c2F)cnc1C(=O)Nc1ccc(C(=O)NCCNC(=O)[C@@H]2CCNC[C@@H]2O)c(Cl)c1 [Example B32, (3R,4R)-N-[2-[[2-chloro-4-[[5-[4-(cyanomethoxy)-2,3-difluoro-phenyl]-1-methyl-imidazole-2-carbonyl]amino]benzoyl]amino]ethyl]-3-hydroxy-piperidine-4-carboxamide;formic acid]	–	1200 nM
COc1ccc(-c2cnc(C(=O)Nc3ccc(C(=O)NCCCCCN(C)C)c(Cl)c3)n2C)c(F)c1F [Example A26, N-[3-chloro-4-[5-(dimethylamino)pentylcarbamoyl]phenyl]-5-(2,3-difluoro-4-methoxy-phenyl)-1-methyl-imidazole-2-carboxamide]	–	200 nM
COc1ccc(-c2cnc(C(=O)Nc3ccc(C(=O)NC4CCNC4)c(Cl)c3)n2C)c(F)c1F (stereo not shown) [Example A3, N-[3-chloro-4-(pyrrolidin-3-ylcarbamoyl)phenyl]-5-(2,3-difluoro-4-methoxy-phenyl)-1-methyl-imidazole-2-carboxamide;formic acid]	–	310 nM
COc1ccc(-c2cnc(C(=O)Nc3ccc(C(=O)NC4CCN(C(=O)[C@@H]5CCNC5)C4)c(Cl)c3)n2C)c(F)c1F (stereo partly drawn) [Example B2, N-[3-chloro-4-[[1-[(3R)-pyrrolidine-3-carbonyl]pyrrolidin-3-yl]carbamoyl]phenyl]-5-(2,3-difluoro-4-methoxy-phenyl)-1-methyl-imidazole-2-carboxamide;formic acid]	–	130 nM
COc1ccc(-c2cnc(C(=O)Nc3ccc(C(=O)N[C@H]4C[C@@H](NC(=O)[C@@H]5CCNC[C@@H]5O)C4)c(Cl)c3)n2C)c(F)c1F [Example B41, (3R,4R)-N-[3-[[2-chloro-4-[[5-(2,3-difluoro-4-methoxy-phenyl)-1-methyl-imidazole-2-carbonyl]amino]benzoyl]amino]cyclobutyl]-3-hydroxy-piperidine-4-carboxamide;formic acid]	–	130 nM
Cc1cc(NC(=O)c2ncc(-c3ccc(OCC#N)c(F)c3F)n2C)ccc1C(=O)NCCNC(=O)N[C@@H]1CNC[C@H]1O [Example B30, 5-[4-(cyanomethoxy)-2,3-difluoro-phenyl]-N-[4-[2-[[(3R,4R)-4-hydroxypyrrolidin-3-yl]carbamoylamino]ethylcarbamoyl]-3-methyl-phenyl]-1-methyl-imidazole-2-carboxamide;formic acid]	–	650 nM
COc1ccc(-c2cnc(C(=O)Nc3ccc(C(=O)N[C@H]4[C@@H]5CN(C(=O)[C@@H]6C[C@@H](O)CN6)C[C@@H]54)c(Cl)c3)n2C)c(F)c1F [Example B43, N-[3-chloro-4-[[(exo)-3-[(2S,4R)-4-hydroxyprolyl]-3-azabicyclo[3.1.0]hexan-6-yl]carbamoyl]phenyl]-5-(2,3-difluoro-4-methoxy-phenyl)-1-methyl-imidazole-2-carboxamide; 1:1 hydrogen chloride]	139 nM	–
Cn1c(-c2ccc(OCC#N)c(F)c2F)cnc1C(=O)Nc1ccc(C(=O)NCCNC(=O)[C@H]2C[C@@](C)(O)CN2)c(Cl)c1 [Example B36, N-[3-chloro-4-[2-[[(2R,4R)-4-hydroxy-4-methyl-pyrrolidine-2-carbonyl]amino]ethylcarbamoyl]phenyl]-5-[4-(cyanomethoxy)-2,3-difluoro-phenyl]-1-methyl-imidazole-2-carboxamide;formic acid]	–	1100 nM
COc1ccc(-c2cnc(C(=O)Nc3ccc(C(=O)NC4CCN(C(=O)[C@@H]5CCNC5)CC4)c(Cl)c3)n2C)c(F)c1F [Example B6, N-[3-chloro-4-[[1-[(3R)-pyrrolidine-3-carbonyl]-4-piperidyl]carbamoyl]phenyl]-5-(2,3-difluoro-4-methoxy-phenyl)-1-methyl-imidazole-2-carboxamide;formic acid]	–	100 nM
COc1ccc(-c2cnc(C(=O)Nc3ccc(C(=O)NCCOCCN)c(Cl)c3)n2C)c(F)c1F [Example A1, N-[4-[2-(2-Aminoethoxy)ethylcarbamoyl]-3-chloro-phenyl]-5-(2,3-difluoro-4-methoxy-phenyl)-1-methyl-imidazole-2-carboxamide]	–	240 nM
